Values of other authors in US9278997B2, “Processes for the manufacture of macrocyclic depsipeptides and new intermediates” (NOVARTIS AG, priority 2011, dated 2016).

Biological target: chymotrypsin (Bos taurus, UniProt P00766)
Details: from J. Nat. Prod. 68(9), 1324-7 (2005); read-out: IC50 value for inhibition of chymotrypsin

For “(S)-2-acetamido-N^1-((1S,2S,5S,8S,11R,12S,15S,18S,21R)-2-benzyl-21-hydroxy-5-(4-hydroxybenzyl)-15-isobutyl-8-isopropyl-4,11-dimethyl-3,6,9,13,16,22-hexaoxo-10-oxa-1,4,7,14,17-pentaazabicyclo[16.3.1]docosan-12-yl)pentanediamide [Nostopeptin BN920]”, which IC50 is on record?
Its IC50 is 31 nM.
